Series [1] in a line: Preliminary toxicity studies, daily injection over 10 days. Type of series: in vivo. The method, then:
Preliminary toxicity studies were performed. Mice were injected (vehicle alone, 8 mg/kg, or 16 mg/kg) daily over a 10 day-period with a 2-day holiday after the first 4 days.

In series [2] the test system is human and mouse leukemia cell lines. In words: Apoptosis (annexin V and propidium iodide staining) after a single treatment. Type of series: cell-based. From the text: Compound 1 induced death of human and mouse leukemia cell lines by apoptosis (annexin V and propidium iodide staining) within 3 days of a single treatment, indicating a cytotoxic as opposed to cytostatic effect.

For series [3], the system named is AML cell lines induced by MLL-AF10 or MLL-AF9. The series is described as follows: Effects on murine leukemia cell lines established from AMLs induced by MLL fusion oncogenes. Type of series: cell-based. The method, then:
Compound 1 was also tested for its effects on murine leukemia cell lines established from AMLs induced via retroviral transduction of MLL fusion oncogenes (Somervaille, T. C. & Cleary, M. L. Identification and characterization of leukemia stem cells in murine MLL-AF9 acute myeloid leukemia. Cancer Cell 10, 257-268, (2006)).

Series [4] deals with MV411-lucifease cell line. The series is described as follows: In vitro sensitivity of MV411-luciferase cell line. Type of series: cell-based, human.
Series [5] deals with human cancer cell lines derived from 9 different tissues. In words: NCI 60-cell line screen, growth inhibition (sulforhodamine B). Type of series: cell-based. Conditions: colon and prostate cancer cell lines; 48 hours incubation. The method, then:
FIG. 1. Mean graph representing the sensitivity of 60 human cell lines to compound 1. The vertical line at GI50 (the drug concentration resulting in a 50% growth reduction) represents the mean response to 10 μM compound 1.
FIG. 2. Growth response of human cell lines grown for 2 days in the presence of increasing concentrations of compound 1.
The compounds have broad specificity and affect human cell lines of multiple lineages. The growth inhibitory properties were analyzed in human cancer cell lines derived from 9 different tissues in the NCI 60-cell line screen. To perform this assay, cells were plated in 96-well plates and incubated overnight. After 24 hours, compounds were added to the wells and plates. Two plates of each cell line were set aside and fixed in TCA to measure the quantity of cells present at the time drug was added (time 0). The remaining plates were incubated for 48 hours. The assay was terminated by addition of TCA, and the cells were quantified by staining the cellular proteins with sulforhadamine B. The growth inhibition (GI50) was calculated by dividing the difference between treated cells at the beginning and end of the assay by the difference between untreated cells at the beginning and end of the assay.

For series [6], the system named is human leukemia cell lines with MLL translocations. The series is described as follows: Viability of human leukemia (B-ALL) cell lines, cell titer blue assay. Type of series: cell-based. The settings on record: 72 h, viability 3 days post-treatment, read-out: IC50 (half maximal inhibitory concentration). How it is done:
(§1) FIG. 3. Inhibition of human B-ALL cell lines treated with compound. Cell lines were treated with increasing concentrations of compound and assessed for viability 3 days post-treatment by cell titer blue assay.
(§2) The majority of human leukemia cell lines with MLL translocations (3/4) were inhibited more potently than non-MLL cell lines (FIG. 3); although most non-MLL cells lines (4/6) were still sensitive to the compounds. […] Compound 1 also has inhibitory effects on primary human patient ALL samples with an IC50 of 4-20 nM.

For series [7], the system named is cells lines with other translocations (E2A-PBX, E2A-HLF, TEL-PDGFRB). Described as above. Type of series: cell-based. The settings on record: read-out: IC50 (half maximal inhibitory concentration). How it is done:
as §1, §2

Series [8] is described as follows: Solubility / formulation property. Type of series: physicochemical.
Series [9] deals with normal murine bone marrow progenitors. In words: Therapeutic window: human B-ALL cell lines versus normal bone marrow progenitors. Type of series: cell-based, human and murine.
In series [10] the test system is primary human patient ALL samples. The series is described as follows: Inhibition of primary human patient ALL samples. Type of series: cell-based. How it is done:
as §2

The nature of series [11]: Initial pharmacokinetic studies in mice. Type of series: in vivo. How it is done:
Initial pharmacokinetic studies were conducted in mice to inform design of pre-clinical efficacy studies.

Series [12] is described as follows: Additional toxicity study, subcutaneous twice a day for 10 days. Type of series: in vivo. Conditions: mice. How it is done:
An additional toxicity study was performed by injecting mice subcutaneously twice a day with 20 mg/kg compound formulated in 5% DMSO/20% gamma-cyclodextrin or 22.5 mg/kg compound formulated in 10% DMSO/40% captisol. for 10 consecutive days. Animals were also dosed with gamma-cyclodextrin or captisol vehicle alone.

In series [13] the test system is MLL leukemia cell lines (RS411-MLL-AF4; HB-MLL-ENL) and control cells (REH-TEL-AML). The series is described as follows: Cell-based high-throughput phenotypic screen, cell viability by fluorescent indicator dye. More on the design: species or system human. Conditions: 2 days after addition of compounds.
Method: Cell viability was assessed using a fluorescent indicator dye at 2 days after addition of compounds.

In general, half-life refers to the time in which the quantity being followed falls by half. High values mean slow decline, low ones rapid decline. As for `Cc1ccc(S(=O)(=O)Cc2nc(-c3ccc(C(=O)NCc4cccnc4)cc3)oc2C)cc1` [Compound 1], the “tolerability (distress, body weight reduction)” value in series [1] (mice, 8 or 16 mg/kg daily over 10 days with 2-day holiday) is “All but one animal tolerated dosing”. In addition, the nephrotoxicity entry in series [1] (mice, captisol formulation, also seen in animals treated with vehicle only) is listed as “Mild nephrotoxicity”; in series [12] (gamma-cyclodextrin formulation, 20 mg/kg s.c. twice a day), “No nephrotoxicity was observed”. Moreover, in [1] (mice, high-dose group (16 mg/kg)), the cardiotoxicity entry was “Severe cardiotoxicity in one animal and mild cardiotoxicity in another animal”. Also, the “MTD or lethal dose” value in [1] (mouse, in vivo) is reported as “not achieved”. The “kinetics of cell death: completion” value in series [2] (after treatment) is 48 h. For the same compound, in series [2] (after treatment), the “kinetics of cell death: initiation” value came out at 24 h. The “time to death by apoptosis” value in [2] (single treatment, annexin V and propidium iodide staining) is listed as at most 3 days. For the same compound, the “sensitivity of murine AML cell lines” value in [3] is “highly sensitive”. Moreover, the IC50 in [4] (Homo sapiens, MV411-luciferase cell line) is 10 nM; in series [6], 1 to 10 nM; in series [7] it was 10 to 20 nM; in series [10], 4 to 20 nM. The compound also gave an IC100 in [4] (MV411-luciferase cell line, printed with (±20 nM)) of 25 nM. In series [4] (pre-incubation of compound with FBS prior to cell treatment in vitro), the “effect of pre-incubation with FBS on potency” value is reported as “no effect on potency”. Also, in series [5], the “growth inhibitory activity (GI50) in NCI 60-cell line screen” value is given as “particularly high activity”. The solubility result in series [8] is listed as “sparingly soluble”. Further, the “sensitivity of human B-ALL cells versus normal murine bone marrow progenitor cells” value in series [9] is recorded as “differential sensitivity”. Also, the “compound remaining in plasma” value in [11] (at 24 hours) is listed as “almost no compound remained”. The half-life in series [11] (mouse, plasma, 16 mg/kg i.p. or s.c. (10% DMSO/40% captisol), 25 mg/kg i.p., s.c., oral (5% DMSO/20% gamma-cyclodextrin)) was about 1.5 h. The absorption into plasma entry in series [11] (single intra-peritoneal or subcutaneous injection 16 mg/kg) is recorded as “quickly absorbed in plasma”. The “toxic side effects (histological tissue morphology, serological liver and kidney function tests)” value in [12] (s.c. twice a day, 20 mg/kg (5% DMSO/20% gamma-cyclodextrin) or 22.5 mg/kg (10% DMSO/40% captisol)) is listed as “No toxic side effects were observed”.

Turning to `CC(=O)[C@]1(O)Cc2c(O)c3c(c(O)c2[C@@H](O[C@H]2C[C@H](N)[C@H](O)[C@H](C)O2)C1)C(=O)c1ccccc1C3=O` [idarubicin, reference compound], in [9], the “sensitivity of human B-ALL cells versus normal murine bone marrow progenitor cells” value is given as “overlapping potency”. Moreover, in series [13], the “cell viability in high-throughput screen” value is “reduced viability of all cell lines”.

For the origin of these results see patent publication US9150559B2, “Anti-proliferative compounds and methods for using the same” (The Board of Trustees of the Leland Stanford Junior …, priority 2011, dated 2015).
